In ChEMBL document CHEMBL1201862, “PubChem BioAssay data set” (2004):
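In this assay, cells in 96-well plates receive the compound at five concentrations for 48 hours. Endpoints are linearly interpolated between the surrounding concentrations. At the GI50, growth is halved.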 The source made the active and inactive calls. Cut-off read from the data, not from the text of the source: active = GI50 up to about 1.1 µM and inactive = higher.

Assays:
Experiment in all cases: growth of human tumour cells (NCI), 48 h
NCI-H522 = test system: NCI-H522
RPMI-8226 = test system: RPMI-8226
UO-31 = test system: UO-31
A549 = test system: A549
SK-MEL-5 = test system: SK-MEL-5
OVCAR-8 = test system: OVCAR-8
KM12 = test system: KM12
SK-MEL-28 = test system: SK-MEL-28
DLD-1 = test system: DLD-1
UACC-257 = test system: UACC-257
XF498 = test system: XF498
DMS-273 = test system: DMS-273
SNB-19 = test system: SNB-19
SF-295 = test system: SF-295
U-251 = test system: U-251
OVCAR-5 = test system: OVCAR-5
NCI-H460 = test system: NCI-H460
A498 = test system: A498
IGROV-1 = test system: IGROV-1
SN12C = test system: SN12C
HCT-15 = test system: HCT-15
TK-10 = test system: TK-10
HOP-62 = test system: HOP-62
M14 = test system: M14
SR = test system: SR
HOP-92 = test system: HOP-92
SW-620 = test system: SW-620
HT-29 = test system: HT-29
RXF 393 = test system: RXF 393
ACHN = test system: ACHN
CAKI-1 = test system: CAKI-1
SNB-78 = test system: SNB-78
SK-OV-3 = test system: SK-OV-3
K562 = test system: K562
KM-20L2 = test system: KM-20L2
UACC-62 = test system: UACC-62
M19-MEL = test system: M19-MEL
DMS-114 = test system: DMS-114
NCI-H23 = test system: NCI-H23
786-0 = test system: 786-0
HL-60 = test system: HL-60
LOX IMVI = test system: LOX IMVI
Malme-3M = test system: Malme-3M
EKVX = test system: EKVX
HCC 2998 = test system: HCC 2998
LXFL 529 = test system: LXFL 529
HOP-18 = test system: HOP-18
SNB-75 = test system: SNB-75
SF-539 = test system: SF-539
HCT-116 = test system: HCT-116
CCRF-CEM = test system: CCRF-CEM
SK-MEL-2 = test system: SK-MEL-2
OVCAR-4 = test system: OVCAR-4
MOLT-4 = test system: MOLT-4
SF-268 = test system: SF-268
NCI/ADR-RES = test system: NCI/ADR-RES
MDA-MB-435 = test system: MDA-MB-435
Hs-578T = test system: Hs-578T
PC-3 = test system: PC-3
MCF7 = test system: MCF7
OVCAR-3 = test system: OVCAR-3
COLO 205 = test system: COLO 205
BT-549 = test system: BT-549
MDA-MB-231 = test system: MDA-MB-231
DU-145 = test system: DU-145
T47D = test system: T47D
NCI-H226 = test system: NCI-H226
MDA-N = test system: MDA-N

SMILES: CCCCCCCCCCCCNC(=S)OC
- GI50 (NCI-H522): 13.2 µM (inactive)
- GI50 (RPMI-8226): 7.98 µM (inactive)
- GI50 (UO-31): 4.13 µM (inactive)
- GI50 (A549): 17.5 µM (inactive)
- GI50 (SK-MEL-5): 17.3 µM (inactive)
- GI50 (OVCAR-8): 15.8 µM (inactive)
- GI50 (KM12): 15.4 µM (inactive)
- GI50 (SK-MEL-28): 16.9 µM (inactive)
- GI50 (DLD-1): 15 µM (inactive)
- GI50 (UACC-257): 16.7 µM (inactive)
- GI50 (XF498): 16.6 µM (inactive)
- GI50 (DMS-273): 15.4 µM (inactive)
- GI50 (SNB-19): 24.7 µM (inactive)
- GI50 (SF-295): 19.4 µM (inactive)
- GI50 (U-251): 16 µM (inactive)
- GI50 (OVCAR-5): 16.3 µM (inactive)
- GI50 (NCI-H460): 17.3 µM (inactive)
- GI50 (A498): 16.9 µM (inactive)
- GI50 (IGROV-1): 11.5 µM (inactive)
- GI50 (SN12C): 14.3 µM (inactive)
- GI50 (HCT-15): 14.6 µM
- GI50 (TK-10): 19.5 µM (inactive)
- GI50 (HOP-62): 18 µM (inactive)
- GI50 (M14): 17.3 µM (inactive)
- GI50 (SR): 3.01 µM (inactive)
- GI50 (HOP-92): 7.08 µM (inactive)
- GI50 (SW-620): 16.6 µM (inactive)
- GI50 (HT-29): 16.7 µM (inactive)
- GI50 (RXF 393): 12.8 µM (inactive)
- GI50 (ACHN): 17.9 µM (inactive)
- GI50 (CAKI-1): 14.8 µM (inactive)
- GI50 (SNB-78): 21.5 µM (inactive)
- GI50 (SK-OV-3): 16 µM (inactive)
- GI50 (K562): 17.5 µM (inactive)
- GI50 (KM-20L2): 16.3 µM (inactive)
- GI50 (UACC-62): 16.1 µM (inactive)
- GI50 (M19-MEL): 17.9 µM (inactive)
- GI50 (DMS-114): 4.63 µM (inactive)
- GI50 (NCI-H23): 17.8 µM (inactive)
- GI50 (786-0): 15.8 µM (inactive)
- GI50 (HL-60): 10.5 µM (inactive)
- GI50 (LOX IMVI): 15.2 µM (inactive)
- GI50 (Malme-3M): 15.5 µM (inactive)
- GI50 (EKVX): 20.7 µM (inactive)
- GI50 (HCC 2998): 18.2 µM (inactive)
- GI50 (LXFL 529): 14.8 µM (inactive)
- GI50 (HOP-18): 17 µM (inactive)
- GI50 (SNB-75): 16.8 µM (inactive)
- GI50 (SF-539): 17 µM (inactive)
- GI50 (HCT-116): 15.4 µM (inactive)
- GI50 (CCRF-CEM): 10.5 µM (inactive)
- GI50 (SK-MEL-2): 16.8 µM (inactive)
- GI50 (OVCAR-4): 19.4 µM (inactive)
- GI50 (MOLT-4): 2.16 µM (inactive)
- GI50 (SF-268): 16.6 µM (inactive)

SMILES: C=COC(=O)N[C@H]1CCc2cc(OC)c(OC)c(OC)c2-c2ccc(SC)c(=O)cc21
- GI50 (NCI-H522): < 0.01 µM (active)
- GI50 (RPMI-8226): < 0.01 µM (active)
- GI50 (UO-31): < 0.048 µM (active)
- GI50 (A549): < 0.01 µM (active)
- GI50 (SK-MEL-5): < 0.01 µM (active)
- GI50 (OVCAR-8): 0.0133 µM (active)
- GI50 (KM12): < 0.01 µM (active)
- GI50 (SK-MEL-28): 1.36 µM (inactive)
- GI50 (NCI/ADR-RES): < 10 nM (active)
- GI50 (UACC-257): 0.116 µM (active)
- GI50 (XF498): < 0.01 µM (active)
- GI50 (DMS-273): < 0.01 µM (active)
- GI50 (MDA-MB-435): < 10 nM (active)
- GI50 (Hs-578T): < 10 nM (active)
- GI50 (SNB-19): 0.0101 µM (active)
- GI50 (SF-295): < 0.01 µM (active)
- GI50 (U-251): < 0.01 µM (active)
- GI50 (OVCAR-5): 0.173 µM (active)
- GI50 (NCI-H460): < 0.01 µM (active)
- GI50 (A498): < 0.01 µM (active)
- GI50 (PC-3): < 10 nM (active)
- GI50 (IGROV-1): < 0.01 µM (active)
- GI50 (SN12C): < 0.01 µM (active)
- GI50 (MCF7): < 13.6 nM (active)
- GI50 (HCT-15): < 0.01 µM
- GI50 (TK-10): 0.177 µM (active)
- GI50 (OVCAR-3): < 10 nM (active)
- GI50 (COLO 205): < 10 nM (active)
- GI50 (HOP-62): < 0.0157 µM (active)
- GI50 (M14): < 0.01 µM (active)
- GI50 (SR): < 0.01 µM (active)
- GI50 (HOP-92): < 0.01 µM (active)
- GI50 (SW-620): < 0.0286 µM (active)
- GI50 (HT-29): < 0.01 µM (active)
- GI50 (BT-549): < 10 nM (active)
- GI50 (RXF 393): < 0.0176 µM (active)
- GI50 (ACHN): < 0.01 µM (active)
- GI50 (CAKI-1): < 0.01 µM (active)
- GI50 (SNB-78): < 0.01 µM (active)
- GI50 (SK-OV-3): 0.0255 µM (active)
- GI50 (K562): < 0.01 µM (active)
- GI50 (KM-20L2): < 0.01 µM (active)
- GI50 (MDA-MB-231): < 10 nM (active)
- GI50 (DU-145): < 10 nM (active)
- GI50 (UACC-62): < 0.01 µM (active)
- GI50 (M19-MEL): < 0.01 µM (active)
- GI50 (T47D): 34 µM (inactive)
- GI50 (DMS-114): < 0.01 µM (active)
- GI50 (NCI-H23): < 0.01 µM (active)
- GI50 (786-0): < 0.01 µM (active)
- GI50 (HL-60): < 0.01 µM (active)
- GI50 (LOX IMVI): < 0.01 µM (active)
- GI50 (Malme-3M): < 0.01 µM (active)
- GI50 (EKVX): 8.43 µM (inactive)
- GI50 (HCC 2998): < 0.01 µM (active)
- GI50 (LXFL 529): < 0.01 µM (active)
- GI50 (HOP-18): > 100 µM (inactive)
- GI50 (NCI-H226): 37.2 nM (active)
- GI50 (MDA-N): < 10 nM (active)
- GI50 (SNB-75): 0.0578 µM (active)
- GI50 (SF-539): < 0.01 µM (active)
- GI50 (HCT-116): < 0.01 µM (active)
- GI50 (CCRF-CEM): < 0.01 µM (active)
- GI50 (SK-MEL-2): < 0.01 µM (active)
- GI50 (OVCAR-4): 4.97 µM (inactive)
- GI50 (MOLT-4): < 0.01 µM (active)
- GI50 (SF-268): < 0.01 µM (active)
